Measured values published in patent US9695155B2, “Herbicidal substituted pyrimidinyloxy benzene compounds” (E. I. DU PONT DE NEMOURS AND COMPANY, priority 2013, dated 2017).

Assays:
corn = assay: Test C preemergence; type: in vivo, Zea mays; settings: Zea mays, pre-emergence
Procedure, shortened: (§1)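 Seeds are planted in blended loam soil and sand and treated preemergence, while seedlings in a peat moss/vermiculite medium receive postemergence sprays at 2 to 18 cm height. All plants stay in the greenhouse for 13 to 15 days before visual comparison with controls on a 0–100 scale.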

ragweed [1] = assay: Test A preemergence; type: in vivo, Ambrosia elatior; settings: 0 to 100 scale where 0 is no effect and 100 is complete control
Procedure, shortened: (§2)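 Greenhouse pot test, loam/sand soil. Formulation: non-phytotoxic solvent mix plus surfactant. Pre: directed spray onto soil after sowing. Post: plants at 1–2 leaf, 2–10 cm. Rated visually vs untreated controls at ~10 d, 0 (no effect) to 100 (complete control).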

morningglory = assay: Test C preemergence; type: in vivo, Ipomoea coccinea; settings: Ipomoea, pre-emergence, preemergence, read-out: Morningglory plant response rating
Procedure, shortened: as §1

blackgrass = assay: Test C preemergence; type: in vivo, Alopecurus myosuroides; settings: Alopecurus myosuroides, pre-emergence
Procedure, shortened: as §1

large (Lg) crabgrass = assay: Test C preemergence; type: in vivo, Digitaria sanguinalis; settings: Digitaria sanguinalis, pre-emergence
Procedure, shortened: as §1

soybean = assay: Test C preemergence; type: in vivo, Glycine max; settings: Glycine max, pre-emergence, preemergence, read-out: Soybean plant response rating
Procedure, shortened: as §1

velvetleaf = assay: Test C preemergence; type: in vivo, Abutilon theophrasti; settings: Abutilon theophrasti, pre-emergence, preemergence, read-out: Velvetleaf plant response rating
Procedure, shortened: as §1

oilseed rape = assay: Test C preemergence; type: in vivo, Brassica napus; settings: Brassica napus, pre-emergence, preemergence, read-out: Oilseed Rape plant response rating
Procedure, shortened: as §1

Italian ryegrass [2] = assay: Test A postemergence; type: in vivo, Lolium multiflorum; settings: 0 to 100 scale where 0 is no effect and 100 is complete control
Procedure, shortened: as §2

galium = assay: Test A postemergence; type: in vivo, Galium aparine; settings: 0 to 100 scale where 0 is no effect and 100 is complete control
Procedure, shortened: as §2

ragweed [3] = assay: Test C preemergence; type: in vivo, Ambrosia elatior; settings: Ambrosia artemisiifolia, pre-emergence, preemergence, read-out: Ragweed plant response rating
Procedure, shortened: as §1

giant foxtail = assay: Test C preemergence; type: in vivo, Setaria faberii; settings: Setaria faberi, pre-emergence
Procedure, shortened: as §1

pigweed = assay: Test C preemergence; type: in vivo, Amaranthus retroflexus; settings: Amaranthus retroflexus, pre-emergence, preemergence, read-out: Pigweed plant response rating
Procedure, shortened: as §1

yellow nutsedge = assay: Test C preemergence; type: in vivo, Cyperus esculentus; settings: Cyperus, pre-emergence, preemergence, read-out: Nutsedge, Yellow plant response rating
Procedure, shortened: as §1

ragweed [4] = assay: Test A postemergence; type: in vivo, Ambrosia elatior; settings: 0 to 100 scale where 0 is no effect and 100 is complete control
Procedure, shortened: as §2

Italian ryegrass [5] = assay: Test C preemergence; type: in vivo, Lolium multiflorum; settings: Lolium multiflorum, pre-emergence, preemergence, read-out: Ryegrass, Italian plant response rating
Procedure, shortened: as §1

lambsquarters = assay: Test C preemergence; type: in vivo, Chenopodium album; settings: Chenopodium album, pre-emergence, preemergence, read-out: Lambsquarters plant response rating
Procedure, shortened: as §1

barnyardgrass = assay: Test C preemergence; type: in vivo, Echinochloa crus-galli; settings: Echinochloa crus-galli, pre-emergence
Procedure, shortened: as §1

[6] = 16 g ai/ha, scale 0 to 100 (0 no effect, 100 complete control)
[7] = 62 g ai/ha, scale 0 (no effect) to 100 (complete control)
[8] = 125 g ai/ha, scale 0 (no effect) to 100 (complete control)

FC(F)c1cn(-c2ccccc2Oc2ncc(Cl)cn2)nn1 [Compound 147, 5-chloro-2-[2-[4-(difluoromethyl)-1H-1,2,3-triazol-1-yl]phenoxy]pyrimidine]
plant injury at 16 g/ha (corn; 16 g ai/ha, preemergence, scale 0 to 100 (0 no effect, 100 complete control), read-out: Corn plant response rating): 0% | plant injury at 62 g/ha (corn; 62 g ai/ha, preemergence, scale 0 (no effect) to 100 (complete control), read-out: Corn plant response rating): 20% | plant injury at 125 g/ha (corn; 125 g ai/ha, preemergence, scale 0 (no effect) to 100 (complete control), read-out: Corn plant response rating): 35% | Corn plant response rating (crop injury, 0 = no effect, 100 = complete kill) at 31 g/ha (corn; Preemergence, 31 g ai/ha, scale 0 to 100, 0 no effect, 100 complete control): 0% | Plant response rating, Ragweed (ragweed [1]; 125 g ai/ha): 90 | Ragweed plant response rating (ragweed [1]; 500 g ai/ha): 100 | pest or weed control at 16 g/ha (morningglory; [6]): 40% | pest or weed control at 62 g/ha (morningglory; [7]): 95% | pest or weed control at 125 g/ha (morningglory; [8]): 100% | pest or weed control at 16 g/ha (blackgrass; 16 g ai/ha, preemergence, scale 0 to 100 (0 no effect, 100 complete control), read-out: Blackgrass plant response rating): 0% | pest or weed control at 62 g/ha (blackgrass; 62 g ai/ha, preemergence, scale 0 (no effect) to 100 (complete control), read-out: Blackgrass plant response rating): 50% | pest or weed control at 125 g/ha (blackgrass; 125 g ai/ha, preemergence, scale 0 (no effect) to 100 (complete control), read-out: Blackgrass plant response rating): 90% | pest or weed control at 31 g/ha (blackgrass; Preemergence, 31 g ai/ha, scale 0 to 100, 0 no effect, 100 complete control, read-out: Plant response rating, Blackgrass): 40% | pest or weed control at 16 g/ha (large (Lg) crabgrass; 16 g ai/ha, preemergence, scale 0 to 100 (0 no effect, 100 complete control), read-out: Crabgrass, Large plant response rating): 98% | pest or weed control at 62 g/ha (large (Lg) crabgrass; 62 g ai/ha, preemergence, scale 0 (no effect) to 100 (complete control), read-out: Crabgrass, Large plant response rating): 100% | pest or weed control at 125 g/ha (large (Lg) crabgrass; 125 g ai/ha, preemergence, scale 0 (no effect) to 100 (complete control), read-out: Crabgrass, Large plant response rating): 100% | pest or weed control at 31 g/ha (large (Lg) crabgrass; Preemergence, 31 g ai/ha, scale 0 to 100, 0 no effect, 100 complete control, read-out: Plant response rating, Crabgrass, Large): 100% | plant injury at 16 g/ha (soybean; [6]): 85% | plant injury at 62 g/ha (soybean; [7]): 95% | plant injury at 125 g/ha (soybean; [8]): 95% | pest or weed control at 16 g/ha (velvetleaf; [6]): 100% | pest or weed control at 62 g/ha (velvetleaf; [7]): 100% | pest or weed control at 125 g/ha (velvetleaf; [8]): 100% | plant injury at 16 g/ha (oilseed rape; [6]): 100% | plant injury at 62 g/ha (oilseed rape; [7]): 100% | plant injury at 125 g/ha (oilseed rape; [8]): 100% | Ryegrass, Italian plant response rating (Italian ryegrass [2]; 125 g ai/ha): 70 | Plant response rating, Ryegrass, Italian (Italian ryegrass [2]; 500 g ai/ha): 90 | Galium plant response rating (galium; 125 g ai/ha): 100 | Plant response rating, Galium (galium; 500 g ai/ha): 100 | pest or weed control at 16 g/ha (ragweed [3]; [6]): 75% | pest or weed control at 62 g/ha (ragweed [3]; [7]): 98% | pest or weed control at 125 g/ha (ragweed [3]; [8]): 100% | pest or weed control at 16 g/ha (giant foxtail; 16 g ai/ha, preemergence, scale 0 to 100 (0 no effect, 100 complete control), read-out: Foxtail, Giant plant response rating): 70% | pest or weed control at 62 g/ha (giant foxtail; 62 g ai/ha, preemergence, scale 0 (no effect) to 100 (complete control), read-out: Foxtail, Giant plant response rating): 100% | pest or weed control at 125 g/ha (giant foxtail; 125 g ai/ha, preemergence, scale 0 (no effect) to 100 (complete control), read-out: Foxtail, Giant plant response rating): 100% | pest or weed control at 31 g/ha (giant foxtail; Preemergence, 31 g ai/ha, scale 0 to 100, 0 no effect, 100 complete control, read-out: Plant response rating, Foxtail, Giant): 100% | pest or weed control at 16 g/ha (pigweed; [6]): 100% | pest or weed control at 62 g/ha (pigweed; [7]): 100% | pest or weed control at 125 g/ha (pigweed; [8]): 100% | pest or weed control at 16 g/ha (yellow nutsedge; [6]): 0% | pest or weed control at 62 g/ha (yellow nutsedge; [7]): 15% | pest or weed control at 125 g/ha (yellow nutsedge; [8]): 55% | Ragweed plant response rating (ragweed [4]; 125 g ai/ha): 100 | Plant response rating, Ragweed (ragweed [4]; 500 g ai/ha): 100 | pest or weed control at 16 g/ha (Italian ryegrass [5]; [6]): 0% | pest or weed control at 62 g/ha (Italian ryegrass [5]; [7]): 50% | pest or weed control at 125 g/ha (Italian ryegrass [5]; [8]): 70% | pest or weed control at 16 g/ha (lambsquarters; [6]): 100% | pest or weed control at 62 g/ha (lambsquarters; [7]): 100% | pest or weed control at 125 g/ha (lambsquarters; [8]): 100% | pest or weed control at 16 g/ha (barnyardgrass; 16 g ai/ha, preemergence, scale 0 to 100 (0 no effect, 100 complete control), read-out: Barnyardgrass plant response rating): 10% | pest or weed control at 62 g/ha (barnyardgrass; 62 g ai/ha, preemergence, scale 0 (no effect) to 100 (complete control), read-out: Barnyardgrass plant response rating): 90% | pest or weed control at 125 g/ha (barnyardgrass; 125 g ai/ha, preemergence, scale 0 (no effect) to 100 (complete control), read-out: Barnyardgrass plant response rating): 100% | pest or weed control at 31 g/ha (barnyardgrass; Preemergence, 31 g ai/ha, scale 0 to 100, 0 no effect, 100 complete control, read-out: Plant response rating, Barnyardgrass): 80%
